Experimental data: PubChem BioAssay AID2060504 (Molecular Pharmacology Branch, DTP, NCI, 2025)
pIC50: −log10 of the molar value.

Test system: 636577-100-R-J1-PDC complex spheroid viability
Assay: Anticancer human tumor 636577-100-R-J1-PDC patient-derived endometrial adenocarcinoma cell line growth inhibition [GQUAD]
Details: for pIC50: curve of first compound; for viability, T/C: stronger effect = lower value; active = viability on the fitted dose curve at most 10% of control; inactive = the rest
How it was run: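 Tumor cells were grown as complex spheroids with HUVEC endothelial cells and mesenchymal stem cells as stroma. G-quadruplex stabilizers were combined with targeted agents over half-log dilutions from near the clinical Cmax, or from 10 microM.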

[1] = second compound 0.0316 µM, first compound 0.0316 µM
[2] = second compound 0.0316 µM, first compound 0.1 µM
[3] = second compound 0.0316 µM, first compound 0.316 µM
[4] = second compound 0.0316 µM, first compound 1 µM
[5] = second compound 0.0316 µM, first compound 3.16 µM
[6] = second compound 0.0316 µM, first compound 10 µM
[7] = second compound 0.1 µM, first compound 0.0316 µM
[8] = second compound 0.1 µM, first compound 0.1 µM
[9] = second compound 0.1 µM, first compound 0.316 µM
[10] = second compound 0.1 µM, first compound 1 µM
[11] = second compound 0.1 µM, first compound 3.16 µM
[12] = second compound 0.1 µM, first compound 10 µM
[13] = second compound 0.316 µM, first compound 0.0316 µM
[14] = second compound 0.316 µM, first compound 0.1 µM
[15] = second compound 0.316 µM, first compound 0.316 µM
[16] = second compound 0.316 µM, first compound 1 µM
[17] = second compound 0.316 µM, first compound 3.16 µM
[18] = second compound 0.316 µM, first compound 10 µM
[19] = second compound 1 µM, first compound 0.0316 µM
[20] = second compound 1 µM, first compound 0.1 µM
[21] = second compound 1 µM, first compound 0.316 µM
[22] = second compound 1 µM, first compound 1 µM
[23] = second compound 1 µM, first compound 3.16 µM
[24] = second compound 1 µM, first compound 10 µM
[25] = second compound 3.16 µM, first compound 0.0316 µM
[26] = second compound 3.16 µM, first compound 0.1 µM
[27] = second compound 3.16 µM, first compound 0.316 µM
[28] = second compound 3.16 µM, first compound 1 µM
[29] = second compound 3.16 µM, first compound 3.16 µM
[30] = second compound 3.16 µM, first compound 10 µM
[31] = second compound 10 µM, first compound 0.0316 µM
[32] = second compound 10 µM, first compound 0.1 µM
[33] = second compound 10 µM, first compound 0.316 µM
[34] = second compound 10 µM, first compound 1 µM
[35] = second compound 10 µM, first compound 3.16 µM
[36] = second compound 10 µM, first compound 10 µM
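Also: viability read after seven days of drug exposure.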
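For viability, T/C in this document: luminescence signal used as a proxy for viable cells; 100% = DMSO vehicle control wells.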

O=c1[nH]cc(F)c(=O)[nH]1 + CN(C)c1ccc(Nc2c3ccc(NC(=O)CCN4CCCC4)cc3nc3cc(NC(=O)CCN4CCCC4)ccc23)cc1
5.43: pIC50 (second compound 0.1 µM)
> 7.50: pIC50 (second compound 3.16 µM) | pIC50 (second compound 10 µM)
5.50: pIC50 (second compound 1 µM)
inactive: viability, T/C [1] 83.1% | viability, T/C [2] 85.7% | viability, T/C [3] 87.9% | viability, T/C [4] 79.5% | viability, T/C [5] 62.5% | viability, T/C [6] 30.1% | viability, T/C [7] 105% | viability, T/C [8] 110% | viability, T/C [9] 72.3% | viability, T/C [10] 63.6% | viability, T/C [11] 67.5% | viability, T/C [12] 27.4% | viability, T/C [13] 88% | viability, T/C [14] 75.3% | viability, T/C [15] 75.6% | viability, T/C [16] 79.9% | viability, T/C [17] 69.5% | viability, T/C [18] 29.2% | viability, T/C [19] 67.5% | viability, T/C [20] 88.8% | viability, T/C [21] 70.5% | viability, T/C [22] 65.3% | viability, T/C [23] 50.8% | viability, T/C [24] 26% | viability, T/C [25] 43.7% | viability, T/C [26] 44.2% | viability, T/C [27] 49.5% | viability, T/C [28] 32.1% | viability, T/C [29] 27.7% | viability, T/C [30] 21%
active: viability, T/C [31] 7% | viability, T/C [32] 6.98% | viability, T/C [33] 6.89% | viability, T/C [34] 6.25% | viability, T/C [35] 6.48% | viability, T/C [36] 3.81%
5.26: pIC50 (second compound 0.316 µM)
5.31: pIC50 (second compound 0.0316 µM)

CCCS(=O)(=O)Nc1ccc(F)c(C(=O)c2c[nH]c3ncc(-c4ccc(Cl)cc4)cc23)c1F + CN(C)c1ccc(Nc2c3ccc(NC(=O)CCN4CCCC4)cc3nc3cc(NC(=O)CCN4CCCC4)ccc23)cc1
> 7.50: pIC50 (second compound 3.16 µM) | pIC50 (second compound 10 µM)
active: viability, T/C [31] 5.58% | viability, T/C [32] 6.42% | viability, T/C [33] 6.13% | viability, T/C [34] 6.09% | viability, T/C [35] 4.83% | viability, T/C [36] 1.82%
5.19: pIC50 (second compound 0.1 µM)
5.18: pIC50 (second compound 0.316 µM) | pIC50 (second compound 1 µM)
5.17: pIC50 (second compound 0.0316 µM)
inactive: viability, T/C [1] 101% | viability, T/C [2] 98.1% | viability, T/C [3] 118% | viability, T/C [4] 59.4% | viability, T/C [5] 87.2% | viability, T/C [6] 35.4% | viability, T/C [7] 96.4% | viability, T/C [8] 79.3% | viability, T/C [9] 89.1% | viability, T/C [10] 73.1% | viability, T/C [11] 80.4% | viability, T/C [12] 32.8% | viability, T/C [13] 82.4% | viability, T/C [14] 83% | viability, T/C [15] 80.2% | viability, T/C [16] 69.2% | viability, T/C [17] 74.9% | viability, T/C [18] 37.6% | viability, T/C [19] 79.3% | viability, T/C [20] 69.8% | viability, T/C [21] 78.9% | viability, T/C [22] 89.8% | viability, T/C [23] 77.7% | viability, T/C [24] 34.5% | viability, T/C [25] 35.7% | viability, T/C [26] 47.9% | viability, T/C [27] 47.1% | viability, T/C [28] 43% | viability, T/C [29] 40.6% | viability, T/C [30] 18.5%

CC1COCCN1c1cc(-c2ccnn2C)c2ccnc(-c3ccn[nH]3)c2n1 (stereo not drawn) + CN(C)c1ccc(Nc2c3ccc(NC(=O)CCN4CCCC4)cc3nc3cc(NC(=O)CCN4CCCC4)ccc23)cc1
7.49: pIC50 (second compound 1 µM)
7.20: pIC50 (second compound 0.1 µM)
> 7.50: pIC50 (second compound 3.16 µM) | pIC50 (second compound 10 µM)
7.17: pIC50 (second compound 0.0316 µM)
active: viability, T/C [5] 7.12% | viability, T/C [6] 3.43% | viability, T/C [11] 5.95% | viability, T/C [12] 2.75% | viability, T/C [17] 5% | viability, T/C [18] 3.28% | viability, T/C [23] 7.85% | viability, T/C [24] 3.23% | viability, T/C [29] 5.18% | viability, T/C [30] 2.8% | viability, T/C [31] 4.8% | viability, T/C [32] 3.22% | viability, T/C [33] 2.72% | viability, T/C [34] 2.01% | viability, T/C [35] 1.02% | viability, T/C [36] 0.62%
inactive: viability, T/C [1] 70% | viability, T/C [2] 39% | viability, T/C [3] 21.6% | viability, T/C [4] 13.2% | viability, T/C [7] 67.8% | viability, T/C [8] 36.9% | viability, T/C [9] 23.4% | viability, T/C [10] 13.1% | viability, T/C [13] 62.1% | viability, T/C [14] 34.5% | viability, T/C [15] 21.6% | viability, T/C [16] 13.4% | viability, T/C [19] 52% | viability, T/C [20] 27.8% | viability, T/C [21] 22.7% | viability, T/C [22] 14% | viability, T/C [25] 30.8% | viability, T/C [26] 24.2% | viability, T/C [27] 19.4% | viability, T/C [28] 11.3%
7.27: pIC50 (second compound 0.316 µM)

O=c1[nH]cc(F)c(=O)[nH]1 + Cc1cnc(CNC(=O)c2c(=O)c3ccc(N4CCCN(C)CC4)nc3n3c2sc2ccccc23)cn1
> 7.50: pIC50 (second compound 0.0316 µM) | pIC50 (second compound 0.1 µM) | pIC50 (second compound 0.316 µM) | pIC50 (second compound 1 µM) | pIC50 (second compound 3.16 µM) | pIC50 (second compound 10 µM)
inactive: viability, T/C [1] 47.8% | viability, T/C [2] 45.1% | viability, T/C [3] 49.7% | viability, T/C [4] 39.9% | viability, T/C [5] 36.7% | viability, T/C [6] 21.3% | viability, T/C [7] 28.9% | viability, T/C [8] 26.9% | viability, T/C [9] 27.6% | viability, T/C [10] 25.9% | viability, T/C [11] 25.5% | viability, T/C [12] 18.4% | viability, T/C [13] 24.2% | viability, T/C [14] 23.3% | viability, T/C [15] 17.6% | viability, T/C [16] 21.9% | viability, T/C [17] 22.2% | viability, T/C [18] 16.6% | viability, T/C [19] 21.3% | viability, T/C [20] 21.1% | viability, T/C [21] 19.7% | viability, T/C [22] 23% | viability, T/C [23] 21.1% | viability, T/C [24] 20.1% | viability, T/C [25] 20% | viability, T/C [26] 19.5% | viability, T/C [27] 21.8% | viability, T/C [28] 24.1% | viability, T/C [29] 21% | viability, T/C [30] 22% | viability, T/C [31] 17.7% | viability, T/C [32] 17.9% | viability, T/C [33] 18% | viability, T/C [34] 18.7% | viability, T/C [35] 20.4% | viability, T/C [36] 20.1%
